Patent publication US20240408093A1, “HETEROBIFUNCTIONAL COMPOUNDS AND THEIR USE IN TREATING DISEASE” (HALDA THERAPEUTICS OPCO, INC., priority 2022, published 2024)
Where two headings read alike, the source gives them in different places.

Legend:
Type in all cases: cell-based
[1] = test system: HEK293 cells (ATCC CRL-1573); experiment: Cellular growth inhibition assay, HEK293 cells (Example 16); details: Homo sapiens, 72 hours, CellTiter-Glo 2.0
GSPT1 = experiment: Payload release assay (DC50 readout), GSPT1 degradation in the presence of recombinant target protein; details: I-series compounds (GSPT1 readout inferred)
Method: Exemplary compounds were tested for ability to cause degradation of CCNK or GSPT1 in the presence of recombinant target protein.
HEK293 LgBiT/GSPT1 HiBiT CRISPR Knock-in cells (Promega) were cultured in DMEM (Gibco 11995), supplemented with 10% Heat-inactivated FBS (Gibco A38400-01) and 1% Penicillin/Streptomycin (Gibco 15140-122) and 200 Vg/ml Hygromycin B (Gibco 10-687-010) at 37° C. with 5% CO2 in a humidified tissue culture incubator. HEK293 LgBiT/CCNK HiBiT cells (in-house, described above) were cultured in DMEM (Gibco 11995), supplemented with 10% Heat-inactivated FBS (Gibco A38400-01) and 1% Penicillin/Streptomycin (Gibco 15140-122) 200 Vg/ml Hygromycin B (Gibco 10-687-010), and 1 Vg/ml Puromycin Dihydrochloride (Thermo A1113803) at 37° C. with 5% CO2 in a humidified tissue culture incubator. Cells were seeded (1000 cells/well for HEK293 LgBiT/GSPT1 HiBiT cells or 3000 cells/well for HEK293 LgBiT/CCNK HiBiT cells) 384-well, tissue culture-treated white plates (Perkin Elmer 6007680) in 10 μL media lacking selection for 18-24 hours. Plates were spun at 300 g for 30 seconds and stored in the incubator overnight. After 24 hours, a 5 μL aliquot of recombinant target protein (final concentration of either 5 μM KRAS amino acids 1-169, C51S, C80L, C118S, G12C or 3 μM EGFR amino acids 696-1022 or 3 μM EGFR amino acids 696-1022, T790M, L858R) was added to wells, followed immediately by a 5 μL aliquot of 4× compound-containing medium supplemented with Endurazine Substrate (Promega N2570) was added in each well, at a final top concentration of 10 μM test compound and 0.5× Endurazine, with 4-fold dilutions, using DMSO alone as a negative control. Plates were then spun at 300×g for 3 minutes again and cultured at 37° C. with 5% CO2. After 6 hours the plate was read on Envision MultiMode Plate Reader 2105 (Perkin Elmer) to measure luminescence signal. Data was normalized to DMSO treated cell wells. A four-parameter non-linear regression curve fit was applied to dose-response data in Prism to determine the half maximal growth inhibitory concentration (GI50) of each compound.

HeLa cells (ATCC CCL-2) = experiment: Cellular growth inhibition assay, HeLa cells (Example 16); details: Homo sapiens, 72 hours, CellTiter-Glo 2.0
[2] = 0 μM recombinant EGFR T790M L858R, read-out: DC50 at 0 μM EGFR T790M L858R
[3] = 0 μM recombinant EGFR WT, read-out: DC50 at 0 μM EGFR WT
[4] = 3 μM recombinant EGFR T790M L858R, read-out: DC50 at 3 μM EGFR T790M L858R
[5] = 3 μM recombinant EGFR WT, read-out: DC50 at 3 μM EGFR WT

Structure (SMILES)	GI50 [1] [µM]	DC50 (GSPT1; [2]) [µM]	DC50 (GSPT1; [3]) [µM]	DC50 (GSPT1; [4]) [µM]	DC50 (GSPT1; [5]) [µM]	GI50 (HeLa cells (ATCC CCL-2)) [µM]
C=C(COc1ccc(Cl)cc1NC(=O)NCc1ccc2c(c1)CN(C1CCC(=O)NC1=O)C2=O)C(=O)N[C@@H]1CN(c2nc(Nc3cn(C)nc3OC)c3ncn(C)c3n2)C[C@H]1F (some centres unmarked) [Compound I-47]	< 0.5	< 0.25	< 0.25	< 0.25	< 0.25	0.5 to 1.5
C=C(COC(=O)N1CCN(c2nc(NCc3nc4cc(C)ccc4[nH]3)n3ncc(Br)c3n2)CC1)C(=O)N1C[C@H](COc2nc(Nc3cnn(C)c3)nc3[nH]cc(Cl)c23)[C@@H](OC)C1 [II-185]	< 0.5	–	–	–	–	0.5 to 1.5
C=C(CN1C(=O)CCC(N2Cc3cc(CNC(=O)Nc4ccc(C)c(Cl)c4)ccc3C2=O)C1=O)C(=O)Nc1cc(Nc2ncc(-c3cn(C)c4ccccc34)cn2)c(OC)cc1N(C)CCN(C)C (centres unmarked) [Compound I-87]	< 0.5	< 0.25	< 0.25	–	–	< 0.5
C=C(CN(C(=O)NCc1ccc2c(c1)CN(C1CCC(=O)NC1=O)C2=O)c1ccc(C)c(Cl)c1)C(=O)Nc1cc(Nc2ncc(-c3cn(C)c4ccccc34)cn2)c(OC)cc1N(C)CCN(C)C (centres unmarked) [Compound I-42]	1.5 to 10	0.25 to 5	5 to 10	< 0.25	< 0.25	1.5 to 10
C=C(COc1cc(-c2ccccn2)ccc1CNc1nc(N[C@H](CC)CO)nc2c1ncn2C(C)C)C(=O)N[C@@H]1CN(c2nc(Nc3cn(C)nc3OC)c3ncn(C)c3n2)C[C@H]1F [II-183]	< 0.5	–	–	–	–	< 0.5
C=C(COc1cc(Cl)cc(NC(=O)NCc2ccc3c(c2)CN(C2CCC(=O)NC2=O)C3=O)c1)C(=O)Nc1cccc(Oc2nc(Nc3ccc(N4CCN(C)CC4)cc3)nc3ccsc23)c1 (centres unmarked) [Compound I-55]	0.5 to 1.5	< 0.25	< 0.25	< 0.25	0.25 to 5	1.5 to 10
C=C(CN(C(=O)NCc1ccc2c(c1)CN(C1CCC(=O)NC1=O)C2=O)c1ccc(C)c(Cl)c1)C(=O)N1C[C@@H](COc2nc(Nc3cnn(C)c3)nc3[nH]cc(Cl)c23)[C@H](OC)C1 (some centres unmarked) [Compound I-71]	0.5 to 1.5	0.25 to 5	0.25 to 5	0.25 to 5	0.25 to 5	> 10
C=C(COc1cc(Cl)cc(NC(=O)NCc2ccc3c(c2)CN(C2CCC(=O)NC2=O)C3=O)c1)C(=O)N[C@@H]1CN(c2nc(Nc3cn(C)nc3OC)c3ncn(C)c3n2)C[C@H]1F (some centres unmarked) [Compound I-45]	< 0.5	< 0.25	< 0.25	< 0.25	< 0.25	1.5 to 10
C=C(CN1CCN(c2nc(NCc3nc4cc(C)ccc4[nH]3)n3ncc(Br)c3n2)CC1)C(=O)Nc1cc(Nc2nccc(-c3cn(C)c4ccccc34)n2)c(OC)cc1N(C)CCN(C)C [II-188]	< 0.5	–	–	–	–	< 0.5
C=C(CN1CCN(c2nc(NCc3nc4cc(C)ccc4[nH]3)n3ncc(Br)c3n2)CC1)C(=O)Nc1cccc(-c2cccc3cnc(Nc4ccc(N5CCN(CCO)CC5)c(F)c4F)nc23)c1 [II-191]	< 0.5	–	–	–	–	< 0.5
C=C(COc1cc(Cl)cc(NC(=O)NCc2ccc3c(c2)CN(C2CCC(=O)NC2=O)C3=O)c1)C(=O)Nc1cccc(-c2cccc3cnc(Nc4ccc(N5CCN(CCO)CC5)c(F)c4F)nc23)c1 (centres unmarked) [Compound I-61]	< 0.5	< 0.25	< 0.25	< 0.25	< 0.25	1.5 to 10
C=C(COc1cc(Cl)cc(NC(=O)NCc2ccc3c(c2)CN(C2CCC(=O)NC2=O)C3=O)c1)C(=O)Nc1cc(Nc2nccc(-c3cn(C)c4ccccc34)n2)c(OC)cc1N(C)CCN(C)C (centres unmarked) [Compound I-59]	< 0.5	< 0.25	< 0.25	< 0.25	< 0.25	1.5 to 10
C=C(COc1cc(Cl)cc(NC(=O)NCc2ccc3c(c2)CN(C2CCC(=O)NC2=O)C3=O)c1)C(=O)N1C[C@H](COc2nc(Nc3cnn(C)c3)nc3[nH]cc(Cl)c23)[C@@H](OC)C1 (some centres unmarked) [Compound I-54]	0.5 to 1.5	< 0.25	< 0.25	< 0.25	< 0.25	1.5 to 10
C=C(COC(=O)n1c(CNc2nc(N3CCNCC3)nc3c(Br)cnn23)nc2cc(C)ccc21)C(=O)N1C[C@H](COc2nc(Nc3cnn(C)c3)nc3[nH]cc(Cl)c23)[C@@H](OC)C1 [Compound V-4]	< 0.5	–	–	–	–	0.5 to 1.5
C=C(COc1c(Cl)cccc1NC(=O)NCc1ccc2c(c1)CN(C1CCC(=O)NC1=O)C2=O)C(=O)Nc1cc(Nc2nccc(-c3cn(C)c4ccccc34)n2)c(OC)cc1N(C)CCN(C)C (centres unmarked) [Compound I-60]	0.5 to 1.5	0.25 to 5	0.25 to 5	0.25 to 5	0.25 to 5	1.5 to 10
C=C(CN(C(=O)NCc1ccc2c(c1)CN(C1CCC(=O)NC1=O)C2=O)c1ccc(C)c(Cl)c1)C(=O)Nc1cccc(Oc2nc(Nc3ccc(N4CCN(C)CC4)cc3)nc3ccsc23)c1 (centres unmarked) [Compound I-70]	1.5 to 10	0.25 to 5	0.25 to 5	0.25 to 5	0.25 to 5	> 10
C=C(COc1c(Cl)cccc1NC(=O)NCc1ccc2c(c1)CN(C1CCC(=O)NC1=O)C2=O)C(=O)N[C@@H]1CN(c2nc(Nc3cn(C)nc3OC)c3ncn(C)c3n2)C[C@H]1F (some centres unmarked) [Compound I-69]	< 0.5	< 0.25	< 0.25	< 0.25	< 0.25	0.5 to 1.5
